# PubChem BioAssay (NCI)
#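 Assay format: 96-well plates, 48-hour exposure. GI50 marks 50% less growth. TGI marks complete inhibition of growth.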
# Key:
# Assay in all cases: NCI-60 cell line screen, 48 h
# NCI/ADR-RES ovarian = test system: NCI/ADR-RES ovarian
# COLO 205 colon = test system: COLO 205 colon
# CAKI-1 renal = test system: CAKI-1 renal
# SNB-19 CNS = test system: SNB-19 CNS
# U251 CNS = test system: U251 CNS
# HL-60(TB) leukemia = test system: HL-60(TB) leukemia
# RXF 393 renal = test system: RXF 393 renal
# HOP-62 NSCLC = test system: HOP-62 NSCLC
# TK-10 renal = test system: TK-10 renal
# HT29 colon = test system: HT29 colon
SMILES,GI50 (NCI/ADR-RES ovarian) [µM],TGI (NCI/ADR-RES ovarian) [µM],GI50 (COLO 205 colon) [µM],TGI (COLO 205 colon) [µM],GI50 (CAKI-1 renal) [µM],TGI (CAKI-1 renal) [µM],GI50 (SNB-19 CNS) [µM],TGI (SNB-19 CNS) [µM],GI50 (U251 CNS) [µM],TGI (U251 CNS) [µM],GI50 (HL-60(TB) leukemia) [µM],TGI (HL-60(TB) leukemia) [µM],GI50 (RXF 393 renal) [µM],TGI (RXF 393 renal) [µM],GI50 (HOP-62 NSCLC) [µM],TGI (HOP-62 NSCLC) [µM],TGI (TK-10 renal) [µM],TGI (HT29 colon) [µM],GI50 (TK-10 renal) [µM],GI50 (HT29 colon) [µM]
O=C(NC1CCN(Cc2ccccc2)CC1)c1cc(-c2cccnc2)nc2ccc(Cl)cc12,15.6,> 100,5.28,> 100,3.24,19.1,11.6,42.3,6.94,22.5,8.27,45.2,4.18,19.4,11.8,31.5,,,,
COC(=O)c1cc(-c2ccc3ccccc3c2)[nH]c(=O)c1C#N,,> 100,,> 100,,> 100,,> 100,,> 100,,38.7,,> 100,,> 100,> 100,> 100,,
Cc1nc2ccccn2c1NC(=O)NN1C(=O)CSC1c1ccc(Cl)cc1 (stereo not given),> 100,> 100,> 100,> 100,> 100,> 100,> 100,> 100,> 100,> 100,> 100,> 100,> 100,> 100,> 100,> 100,> 100,> 100,> 100,> 100
COc1ccc(-c2nn(-c3cccc(Cl)c3)cc2/C=C2\NC(=S)N(c3ccc(Cl)cc3)C2=O)cc1,5.51,14.5,5.59,11,4.79,13.2,6.54,> 25,2.86,6.99,8.61,> 25,3.02,9.97,3.91,7.83,16,10.6,6.37,4.99
O=C1Cc2c(-c3ccccc3)cc(-c3ccccc3)nc2-c2ccccc2N1,,18.6,,63.7,,19.9,,8.76,,20,,> 100,,> 100,,7.73,5.68,28,2.48,
Cc1cc2c(cc1Cl)SC(N(c1ccccc1Cl)S(=O)(=O)c1ccc(Br)s1)=NS2(=O)=O,17.2,41.3,12.2,28,19.4,48.4,19.9,68.5,16.5,46.3,16.4,41.9,,,37.5,> 100,66.4,41.6,21.9,19.9
CN(C)c1ccc(/C=C/C(=O)c2ccc(Nc3nc(Nc4ccc(F)cc4)nc(Nc4ccc(F)cc4)n3)cc2)cc1,4.39,30.7,5.16,24.8,21.8,63.3,29.6,> 100,17.2,55.1,12.2,> 100,7.84,26.1,17.7,47.4,> 100,66.6,28.7,15.5
